Measurements published in ChEMBL document CHEMBL3232901, “Design, synthesis, and pharmacological evaluation of fluorinated tetrahydrouridine derivatives as inhibitors of cytidine deaminase” (J Med Chem, 2014).

What was measured:
[1] = Chemical stability in simulated gastric fluid assessed as compound remaining after 10 mins at pH 1.2 at 37 degC; assay type: ADME, physicochemical, Stomach; conditions: read-out: Stability
[2] = Chemical stability in simulated gastric fluid assessed as compound remaining after 2 hrs at pH 1.2 at 37 degC; assay type: ADME, physicochemical, Stomach; conditions: read-out: Stability

- remaining at 10 min [1]: 50%
- remaining at 2 h [2]: 15%
Compound: O=C1NC(O)CCN1[C@@H]1O[C@H](CO)[C@@H](O)[C@H]1O (mixture of isomers) [TETRAHYDROURIDINE]
